Results published in US20100215632A1, “BIOMARKERS OF SIRTUIN ACTIVITY AND METHODS OF USE THEREOF” (Sirtris Pharmaceuticals, Inc., priority 2007, published 2010).

What was measured:
[1] = tested on: FGF21; assay: FGF21 expression in liver of diet-induced obesity mice (microarray); format: in vivo, mouse; settings: 3 day liver, oral once per day; resveratrol 1000 mg/kg, Compound 1 100 mg/kg
Method: (§1) As with Example 2, the diet-induced obesity (D10) model was used. 51 C57BL/6 mice are started on a 60% kcal high fat diet. Mice are weighed once a week for approximately 7 weeks on the high fat diet until the average body weight of the D10 mice is 40 grams. The study is divided into 3 groups of […] mice per group with mean average body weight/cage. Animals are dosed orally once per day as follows: Resveratrol at 1000 mg/kg in 2% HPMC/0.2% DOSS, Compound 1 at 100 mg/kg in 2% HPMC/0.2% DOSS and vehicle control animals 2% HPMC/0.2% DOSS. Concentration of compound is adjusted to proper dose according to the mean weight for each group weekly. Mice are typically dosed in the a.m. and are only dosed in the p.m. on days following a 16 hour fast. On day 3 of dosing, liver tissue is collected from the mice 1 hour post dose.
The liver is isolated as in Example 2. Total RNA from the liver sample is extracted with standard techniques (e.g. PureLink Micro-to-Midi Total RNA Purification System, Invitrogen cat. #12183-018).
Expression of multiple genes was determine by microarray as in Example 4.

[2] = tested on: liver; assay: Overall pattern of change in gene expression in 3 day liver of diet-induced obesity mice (gene chip); format: in vivo, mouse; settings: 1000 mg/kg oral once per day
Excerpt: A mouse model of diet induced obesity was used to identify sirtuin biomarkers in mice following dosing with two chemically unrelated sirtuin activators. Obesity and type II diabetes are being intensively studied in animal models, particularly the mouse. One such model is commonly referred to as the diet-induced obesity (DIO) model. Typically, C57BL/6 males are fed a high fat diet for 8 to 12 weeks and, as a result, become obese, mildly to moderately hyperglycemic, and glucose intolerant. These mice are then used to study the genetic and physiological mechanisms of obesity and type II diabetes.
as §1, with “51” for “As with Example 2, the diet-induced obesity (D10) model was used. 51”, “DIO” for “D10”, “Each group is split up into 3 sub-groups for a 3, 16 and 42” for “On”, “collection time point.” for “3 of dosing, liver tissue is collected from the mice 1 hour post dose.”
Once dosing starts data collections are as follow. Day 3: collect tissues, blood and glucose from 6 mice from each group 1 hour post dose. Also take fed glucose from remaining groups. Day 13: Intraperitoneal glucose tolerance test (IPGTT). Day 16: collect tissues, blood and glucose from 6 mice from each group 1 hour post dose. Also take fed glucose from remaining groups. Day 28: Fasted glucose. […]
Total RNA isolated from either Example 2 above (mouse tissues following in vivo treatment with either Compound 1 or resveratrol) or Example 3 above (human WBC following ex vivo treatment with either Compound 2 or resveratrol) was analyzed using an Affymetrix GeneChip specific to either the mouse or human genome. […]

Compound	FGF21 mRNA levels versus control mice [1]	activity of PGC1a and PPAR family members [2]	activity of hepatic transcription factors involved in glucose homeostasis and the stress response pathway [2]	inflammatory signaling (pattern of gene expression) [2]
O=C(Nc1ccccc1-c1cn2c(CN3CCNCC3)csc2n1)c1cnc2ccccc2n1 [Compound 1]	markedly higher			
Oc1ccc(C=Cc2cc(O)cc(O)c2)cc1 [resveratrol, 3,5,4′-trihydroxystilbene]	markedly higher	increased activity of PGC1a and PPAR family members	increased activity of hepatic transcription factors	decreased inflammatory signaling
